“Also recorded” adds a separate entry of the source.
Columns and labels:
[1] = test system: TLR4; experiment: TLR4 agonism in murine and human HEK-TLR4 reporter cells; assay type: cell-based
Text: FIG. 37. TLR4 agonism assays with analogs of 2B182c in human and murine TLR4 reporter cells.

[2] = test system: mBMDCs; experiment: IL-12 induction in mBMDCs (ELISA); assay type: cell-based, mouse; conditions: 10 μM / dose response
Method: (§1) All these analogs were evaluated for induction of IL-12 cytokine at 10 μM, followed by dose response IL-12 induction for selected analogs. These analogs were also evaluated for exosome release by quantitating EV release in the supernatant post 48 hours incubation with CD63-Tluc-CD9-EmGFP THP-1 reporter cells.
mBMDCs (10^5 cells/200 μL/well) were plated in wells of 96-well plates and treated with test compound (5 μM or 10 μM) or vehicle (0.5% DMSO) overnight.

[3] = test system: mBMDCs; experiment: Intracellular Ca2+ influx (Fura-2/Fura-8) in mBMDCs; assay type: cell-based, mouse; conditions: 10 μM, vs Veh 0.5% DMSO / #634
[4] = test system: mBMDCs; experiment: Cell viability / cytotoxicity in mBMDCs (MTT); assay type: cell-based, mouse; conditions: for toxicity in exosome-depleted FBS medium: mBMDCs, 10 μM, 48 hours, MTT; for cytotoxicity of Ca influx inhibitors / chelators in mBMDC culture: 48 hours culture
Method: FIGS. 30A-30B. […] After 48 hours incubation, cell viability was determined by MTT assay.
mBMDCs (10^5 cells/200 μL/well) were treated with 10 and 5 μM of a test compound in 96-well plates overnight. After 18 hours of drug treatment, MTT (0.5 mg/ml) was added to each well. The cells were lysed after 6-8 hours incubation, and absorbance values at 570 and 650 nm were measured. PrestoBlue reagent (#A13261, Thermo Fisher Scientific) was used for cell viability assay in CD63 HTS as described earlier.
Cell viability assay. mBMDCs (2×10^6 cells/200 μL/well in RPMI1640 supplemented with dialyzed 10% FBS, or 1.5×10^6 cells/200 μL/well in RPMI1640 supplemented with 10% exosome depleted FBS) were treated with 10 μM of each test compound in 96-well plates. After 46-48 hours of compound treatment, MTT (0.5 mg/mL) was added to each well. The cells were lysed after overnight incubation, and absorbance values at 570 and 650 nm were measured.

[5] = test system: mBMDCs; experiment: EV release from mBMDCs (differential ultracentrifugation, MRPS); conditions: 10 μM, 46-48 h, vs Veh
[6] = test system: CD63-Tluc-CD9-EmGFP THP-1 reporter cells; experiment: CD63 Tluc-CD9 EmGFP THP-1 reporter cell assay (EV/exosome release); assay type: cell-based, human; conditions: 634 analogs 10 μM, 48 hours
Method: as §1
In the HTS using CD63-Tluc-CD9EmGFP reporter cells (CD63 HTS), PMA (10 ng/ml) was used as a positive control (Shpigelman et al., 2021) and 0.5% DMSO was used as negative control (vehicle, Veh). Briefly, the harvested cells were resuspended in assay media containing 10% exosome-depleted […] (#A2720801, Thermo Fisher Scientific) and plated at 2×10^5 cells/mL (50 μL/well of 384-well plates) (#3674, Corning). Test compounds were added at a final concentration of 10 μM to cells and incubated for 48 hours at 37° C. Subsequently, the plate was centrifuged, supernatant (25 μL) was transferred, and chemiluminescent was measured as recombinant luciferase activity (RLU) after 10 minutes incubation with TurboLuc assay reagent (TurboLuc™ One-Step Glow Assay kit, Thermo Fisher Scientific). The response that measures activation and subsequent release of EVs was calculated using the following formula; % response=100×(compound RLU−average Veh RLU)/(average PMA RLU−average Veh RLU). The viability of cells was assessed using PrestoBlue reagent (Thermo Fisher Scientific). Briefly, PrestoBlue reagent (2.5 μl) was added to the remaining cells and incubated for 30 minutes at room temperature, followed by fluorescence readout at (Ex 560 nm/Em 590 nm) which was normalized to fluorescence data of the Veh wells within the plate to obtain “% viability” calculated as 100×(compound fluorescence/average Veh fluorescence).
CD63 Tluc-CD9 EmGFP THP-1 reporter cell assay. CD63 Tluc CD9 EmGFP THP-1 reporter cell (designated as CD63 Tluc reporter cells) were incubated with 10 μM test compounds, ION (1 μM), or 0.5% DMSO (negative control) in the RPMI 1640 supplemented with exosome-depleted FBS at 5×10^4 cells in 200 μL/well for a 96-well plate for 48 hours at 37° C. Subsequently, the plate was centrifuged, the supernatant was transferred, and chemiluminescence was measured by TurboLuc™ Luciferase One-Step Glow Assay Kit. The response that measures activation and subsequent release of EVs was calculated using the following formula; % response=100×(compound RLU−average Veh RLU)/(average PMA RLU−average Veh RLU).

SMILES | TLR4 agonistic activity [1] | intracellular Ca^2+ influx by 634 and its SAR analogs (Fura-2) [3] | other results
CCCCCCCC/C=C\CCCCCCCC(=O)OC[C@H](COP(=O)(O)OCCNC(=O)CCCC(=O)Oc1cccc(-n2c(SCC(=O)NC3CCCCC3)nc3c4cc(-c5ccco5)ccc4n(C)c3c2=O)c1)OC(=O)CCCCC/C=C\CCCCCCCC [2G177] | slightly less potent than 2G053; also recorded: the potency at the highest concentration was better | – | –
COc1ccc(-c2nnc(-c3cccnc3)o2)cc1OC [#1310] | – | – | IL-12 induction [2]: as potent as #645
Cc1sc(NS(=O)(=O)c2cccc3nsnc23)c(C(=O)OCCC(C)C)c1C [2G179d, Isopentyl 2-(benzo[c][1,2,5]thiadiazole-4-sulfonamido)-4,5-dimethylthiophene-3-carboxylate] | – | increased intracellular Ca^2+ levels more than that of #634 | toxicity in exosome-depleted FBS medium [4]: higher toxicity
Cc1nnsc1C(=O)Nc1ccc(-n2nc(C(F)(F)F)cc2C(F)(F)F)cc1 [BTP2, reference compound] | – | – | cytotoxicity of Ca influx inhibitors / chelators in mBMDC culture [4]: cytotoxic; number of EV particles released in the culture supernatant [5]: increased EV release by mBMDC
Cc1sc(NS(=O)(=O)c2cccc3nsnc23)c(C(=O)O)c1C [2H013, 2-(benzo[c][1,2,5]thiadiazole-4-sulfonamido)-4,5-dimethylthiophene-3-carboxylic acid] | – | did not induce Ca^2+ influx in mBMDCs; also recorded: negative | luciferase activities in the culture supernatant of CD63 Tluc reporter cells [6]: did neither increase luciferase activities
CCCCCCOC(=O)c1c(NS(=O)(=O)c2cccc3nsnc23)sc(C)c1C [2G179b, Hexyl 2-(benzo[c][1,2,5]thiadiazole-4-sulfonamido)-4,5-dimethylthiophene-3-carboxylate] | – | increased intracellular Ca^2+ levels more than that of #634 | toxicity in exosome-depleted FBS medium [4]: higher toxicity
Cn1c2ccc(-c3ccco3)cc2c2nc(SCC(=O)NC3CCCCC3)n(-c3ccc(O)c(O)c3)c(=O)c21 [2E255] | completely inactive | – | –
Cc1cc(NS(=O)(=O)c2cccc3nsnc23)sc1C [2G182] | – | loss of potency | –
c1ccc(-c2cn(-c3cncc(-c4cccs4)c3)nn2)cc1 [2H050] | – | – | IL-12 induction [2]: significantly enhanced cytokine IL-12 induction
CCCOC(=O)c1c(NS(=O)(=O)c2cccc3c2N=S=N3)sc(C)c1C [2G176, Propyl 2-(benzo[c][1,2,5]thiadiazole-4-sulfonamido)-4,5-dimethylthiophene-3-carboxylate] | – | Ca^2+ influx positive | –
CCCCCCCCC(=O)Nc1cccc(-n2c(SCC(=O)NC3CCCCC3)nc3c4cc(-c5ccco5)ccc4n(C)c3c2=O)c1 [2G113] | did not retain equal potency | – | –
Cc1sc(NS(=O)(=O)c2cccc3nsnc23)c(C(=O)OCc2ccccc2)c1C [2G179f, Benzyl 2-(benzo[c][1,2,5]thiadiazole-4-sulfonamido)-4,5-dimethylthiophene-3-carboxylate] | – | – | toxicity in exosome-depleted FBS medium [4]: higher toxicity
Cc1sc(NS(=O)(=O)c2cccc3nsnc23)c(C(=O)OC(C)(C)C)c1C [2G179 h, Tert-butyl 2-(benzo[c][1,2,5]thiadiazole-4-sulfonamido)-4,5-dimethylthiophene-3-carboxylate] | – | – | toxicity in exosome-depleted FBS medium [4]: higher toxicity
Clc1ccc(-c2nnc(-c3cccnc3)o2)cc1 [#1311] | – | – | IL-12 induction [2]: as potent as #645
Cc1sc(NS(=O)(=O)c2cccc3c2N=S=N3)c(C(=O)OC(C)C)c1C [2G179c, Isopropyl 2-(benzo[c][1,2,5]thiadiazole-4-sulfonamido)-4,5-dimethylthiophene-3-carboxylate] | – | increased intracellular Ca^2+ levels more than that of #634; also recorded: Ca^2+ influx positive | –
Cn1c2ccc(-c3ccco3)cc2c2nc(SCC(=O)NC3CCCCC3)n(-c3cccc(N)c3)c(=O)c21 [2G023a] | equipotent to compound 28182c | – | –
Cc1sc(NS(=O)(=O)c2cccc3nsnc23)c(C(=O)OC2CCCCC2)c1C [2G179e, Cyclohexyl 2-(benzo[c][1,2,5]thiadiazole-4-sulfonamido)-4,5-dimethylthiophene-3-carboxylate] | – | – | toxicity in exosome-depleted FBS medium [4]: higher toxicity
CCOC(=O)c1c(N(C)S(=O)(=O)c2cccc3c2N=S=N3)sc(C)c1C [2F186, Ethyl 4,5-dimethyl-2-(N-methylbenzo[c][1,2,5]thiadiazole-4-sulfonamido)thiophene-3-carboxylate] | – | did not induce Ca^2+ influx in mBMDCs; also recorded: negative | luciferase activities in the culture supernatant of CD63 Tluc reporter cells [6]: did neither increase luciferase activities
O=C(O)CN(CCOCCOCCN(CC(=O)O)CC(=O)O)CC(=O)O [EGTA, reference compound] | – | – | cytotoxicity of Ca influx inhibitors / chelators in mBMDC culture [4]: cytotoxic; also recorded: toxic; number of EV particles released in the culture supernatant [5]: increased EV release by mBMDC; also recorded: enhanced particle release from dead and dying cells
Cc1sc(NS(=O)(=O)c2cccc3nsnc23)c(C(=O)Oc2ccccc2)c1C [2G179g, Phenyl 2-(benzo[c][1,2,5]thiadiazole-4-sulfonamido)-4,5-dimethylthiophene-3-carboxylate] | – | lost potency; also recorded: Ca^2+ influx positive | –
COC(=O)c1c(NS(=O)(=O)c2cccc3c2N=S=N3)sc(C)c1C [2G179a, Methyl 2-(benzo[c][1,2,5]thiadiazole-4-sulfonamido)-4,5-dimethylthiophene-3-carboxylate] | – | Ca^2+ influx positive | –
CC(=O)OCOC(=O)CN(CC(=O)OCOC(C)=O)c1ccccc1OCCOc1ccccc1N(CC(=O)OCOC(C)=O)CC(=O)OCOC(C)=O [BAPTA-AM, reference compound] | – | – | cytotoxicity of Ca influx inhibitors / chelators in mBMDC culture [4]: cytotoxic; also recorded: toxic; number of EV particles released in the culture supernatant [5]: increased EV release by mBMDC; also recorded: enhanced particle release from dead and dying cells
Cn1c2ccc(-c3ccco3)cc2c2nc(SCC(=O)NC3CCCCC3)n(-c3cccc(OCOP(=O)(O)O)c3)c(=O)c21 [2G202] | weakly active | – | –
CCNC(=O)c1c(NS(=O)(=O)c2cccc3c2N=S=N3)sc(C)c1C [2E241, 2-(benzo[c][1,2,5]thiadiazole-4-sulfonamido)-N-ethyl-4,5-dimethylthiophene-3-carboxamide] | – | loss of potency; also recorded: did not induce Ca^2+ influx in mBMDCs; also recorded: negative | luciferase activities in the culture supernatant of CD63 Tluc reporter cells [6]: did neither increase luciferase activities
CC(=O)Oc1cccc(-n2c(SCC(=O)NC3CCCCC3)nc3c4cc(-c5ccco5)ccc4n(C)c3c2=O)c1 [2G107] | potent | – | –
Cn1c2ccc(-c3ccco3)cc2c2nc(SCC(=O)NC3CCCCC3)n(-c3cccc(O)c3)c(=O)c21 [2G053] | equipotent to compound 28182c | – | –
CCCCCCCCC(=O)Oc1cccc(-n2c(SCC(=O)NC3CCCCC3)nc3c4cc(-c5ccco5)ccc4n(C)c3c2=O)c1 [2G108] | potent | – | –
CC(=O)Nc1cccc(-n2c(SCC(=O)NC3CCCCC3)nc3c4cc(-c5ccco5)ccc4n(C)c3c2=O)c1 [2G112] | did not retain equal potency | – | –

Reference: patent US20250281465A1, “MOLECULES THAT ENHANCE EXTRACELLULAR VESICLE RELEASE” (priority 2022, published 2025)
